The values that follow come from PubChem BioAssay (NCI).

Common to all, as to assay: NCI tumour cell line growth inhibition, 48 h
The test system of assay [1] is HOP-18 NSCLC.
For assay [2], the system named is DMS 273 small cell lung.
Assay [3] concerns P388/ADR leukemia.
Assay [4] deals with XF 498 CNS.
The subject of assay [5] is SN12K1 renal.
Assay [6] has as its system P388 leukemia.
Assay [7] has as its system MDA-N.
Assay [8] concerns PC-3 prostate.
Assay [9] deals with RXF-631 renal.

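Assay format: 96-well plates, 48-hour exposure. GI50: concentration for 50% inhibition of growth. TGI: total growth inhibition.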

Consider `NC1=NS(=O)(=O)Nc2nc(-c3cccs3)[nH]c21`, for which the TGI in [1] and in assay [2] was above 100 µM in each case.
On to `C=C1C(=O)OC2/C=C(\C)CC(O)/C=C(/CO)CC(OC(=O)/C(C)=C/C)C12` (configuration not stated), for which the TGI in [3] was 240 µM; in assay [4], 37.2 µM; in assay [5] it was 76.6 µM; in [1] it was 49.7 µM; in assay [2] it was 82.5 µM; in assay [6], 113 µM.
`O=C(/N=C/c1c(O)c2ccccc2oc1=O)NC1CCCCC1`: the results for the TGI in assay [4] and in assay [2] were 93 µM and above 100 µM, respectively.
Turning to `CC(O)=NC(Cc1ccc2ccccc2c1)C(O)=NC(Cc1ccc(Cl)cc1)C(O)=NC(Cc1c[nH]c2ccccc12)C(O)=NC(CO)C(O)=NC(Cc1ccc(O)cc1)C(O)=NC(CCCN=C(N)N)C(O)=NC(CC(C)C)C(O)=NC(CCCN=C(N)N)C(=O)N1CCCC1C(O)=NC(C)C(=N)O` (configuration not stated), the TGI in assay [7] and in assay [8] was above 100 µM in each case.
On to `Cc1onc(-c2c(F)cccc2Cl)c1C(=O)N[C@@H]1C(=O)N2[C@@H]1SC(C)(C)[C@@H]2C(=O)O`, for which the TGI in assay [7] and in assay [8] was above 100 µM throughout.
In the case of `CC(C)Cc1cccc(C(C)C)c1NC(=O)CCC(=O)N/N=C1\C(=N/NC(=O)CCC(=O)Nc2c(C(C)C)cccc2C(C)C)C(c2ccc3c(c2)OCO3)Oc2ccccc21` (configuration not stated), the TGI in [4] and in [2] was above 100 µM each time.
As to `FC(F)(F)C1=NC(=NNc2nnc(-c3ccccc3)c(-c3ccccc3)n2)N=C(C(F)(F)F)C1`, the TGI is above 100 µM in [3]; above 88.5 µM in assay [4]; above 100 µM in [5]; above 100 µM in assay [1]; above 100 µM in assay [2]; above 47.5 µM in [6].
Regarding `CS(=O)(=O)OCc1c(O)c2c(c(O)c1COS(C)(=O)=O)C(=O)C=CC2=O`, the TGI in assay [9], in [1] and in [2] was above 100 µM in each case.
In the case of `O=c1cc(-c2nc3ccccc3[nH]2)[nH]c2nc(-c3nc4ccccc4[nH]3)cc(-c3ccc(Cl)cc3)c12`, the TGI in assay [7] was 59.6 µM; in assay [8] it was above 100 µM.
As to `CN(C)CCC(C(=O)C(C)(C)C)c1ccccn1` (configuration not stated), the TGI in assay [7] and in assay [8] was above 100 µM in each case.
For the compound `C[C@H](O)C(=O)SC[C@H](NC(=O)CC[C@@H](N)C(=O)O)C(=O)NCC(=O)O`, the TGI in [2] was above 100 µM.
Regarding `COc1c2ccoc2c(S(=O)(=O)Nc2ccc(Cl)cc2)c2oc(C)cc(=O)c12`, the TGI in [3], in assay [4], in assay [5], in [1], in assay [2] and in [6] was above 100 µM in each case.
Regarding `COc1ccc(-n2cc(-c3ccc(OC)c(OC)c3)nc2SCc2ccccc2)cc1Cl`, in [8], the GI50 is 13.8 µM and the TGI was above 100 µM.
Take `ClCC1(CCl)COC1`: the TGI in assay [7] and in assay [8] was above 100 µM throughout.
As to `Oc1ccc2ccccc2c1Cc1c(O)ccc2ccccc12`, the TGI was determined as 28.3 µM in [7] and 35.1 µM in assay [8].
Turning to `CCCC(=O)OCC(O)CO` (configuration not stated), the TGI in [1] and in assay [2] was above 5000 µM throughout.
For the compound `C[C@]12CC[C@H](O)CC1=CC[C@@H]1[C@@H]2CC[C@]2(C)C(=O)CC[C@@H]12`, the TGI in [7] and in assay [8] was above 100 µM each time.
Regarding `CO[C@]12C[C@H](CNC(=O)c3cc(Br)c(Br)[nH]3)O[C@H]1NC(=O)N2`, in assay [8], the TGI was above 100 µM.
